Where “and” joins values, the source holds several entries; their conditions need not be identical. Equal entries are not always repeated. Entries after “also recorded” stand apart in the source; their conditions may differ. Where two headings read alike, the source gives them in different places.
Legend:
[1] = system: human ovarian A2780 cancer cells; settings: Peacock et al, J. Am. Chem. Soc. 2006; said to be erroneous; cited from earlier work
[2] = Stability in isotonic saline solutions; format: physicochemical; settings: after 16 days of storage in the dark
Protocol: Stability tests on AFAP42, 64, 62, 05, 51 and 65 in isotonic saline solutions were also performed.

[3] = system: human ovarian A2780 cancer cells; assay: Cytotoxicity towards A2780 cells, sulforhodamine B (SRB) assay; format: cell-based
Protocol: (§1) Experimental: Cytotoxicity Towards A2780 and A549 Human Cancer Cells. After plating, human ovarian A2780 cancer cells were treated with Os^II complexes on day 3, and human lung A549 cancer cells on day 2, at concentrations ranging from 2 μM to 50 μM. Solutions of the Os^II complexes were made up in 0.125% DMSO to assist dissolution. Cells were exposed to the complexes for 24 h, washed, supplied with fresh medium, allowed to grow for three doubling times (72 h), and then the protein content measured (proportional to cell survival) using the sulforhodamine B (SRB) assay.
(§2) Cancer Cell Cytotoxicity. After plating, human ovarian A2780 cancer cells were treated with OsII complexes on day 3, and human lung A549 cancer cells on day 2, at concentrations ranging from 0.1 μM to 100 μM. Solutions of the OsII complexes were made up in 0.125% DMSO to assist dissolution. Cells were exposed to the complexes for 24 h, washed, supplied with fresh medium, allowed to grow for three doubling times (72 h), and then the protein content measured (proportional to cell survival) using the sulforhodamine B (SRB) assay.10

[4] = system: human lung A549 cancer cells; assay: Cytotoxicity towards A549 cells, sulforhodamine B (SRB) assay; format: cell-based
Protocol: as §1, §2

[5] = system: A549 human lung and A2780 human ovarian cancer cell lines; assay: Cytotoxicity in A549 and A2780 cell lines, result not split by cell line; format: cell-based
Protocol: as §1, §2

[6] = Stability against formation of hydroxo-bridged dimers; format: physicochemical; settings: for Formation of inert hydroxo-bridged dimers: micromolar concentrations; for Stability with no evidence of dimer formation: 50 μM, even after incubation at 310 K (24 h)
From the text: Complexes containing O,O-chelated ligands are deactivated at micromolar concentrations by loss of the chelate and formation of inert hydroxo-bridged dimers.

[7] = Acidity (pKa / pKa*) of coordinated water, 1H NMR pH* titration
From the text: pKa* calculations. […] The chemical shifts of the arene ring protons were plotted against pH*. The pH* titration curves were fitted to the Henderson-Hasselbalch equation, with the assumption that the observed chemical shifts are weighted averages according to the populations of the protonated and deprotonated species.

[8] = extreme conditions of heating, sonicating, exposure to air and extreme sunlight
Protocol: Samples are prepared for testing by initially dissolving in 5% DMSO and subsequently diluting down.

[9] = Effect of chloride concentration on aqua adduct formation; format: physicochemical; settings: for % aqua adduct: 1 mM complex in D2O, t = 10 min; for % of aqua complex formed: 1 mM complex
From the text: The effects of chloride levels on the distribution of AFAP42 (“prodrug”) and its aqua analogue (“active species”) were investigated. […] Results are summarised in table 6, showing how the hydrolysis of AFAP42 is suppressed in solutions with chloride concentrations similar to those found in blood plasma. At chloride concentrations typical of the cells cytoplasm, complex AFAP42 hydrolyses to some extent and at chloride concentrations typical of the nucleus (where the proposed target, DNA, can be found), the complex is present predominantly as the “active species” the aqua complex.
The effects of chloride concentrations typical of blood plasma (100 mM), cell cytoplasm (22.7 mM) and cell nucleus (4 mM) on the aqueous chemistry of 3 and 6 were investigated. ^1H NMR spectra of 3 or 6 (1 mM) were recorded within 10 min of sample preparation and after incubation at 310 K for 24 h.

[10] = as above; format: physicochemical; settings: for % aqua adduct: 1 mM complex in D2O, t = 26 h
[11] = Hydrolysis (aquation) kinetics followed by 1H NMR; format: physicochemical; settings: for Hydrolysis k/h^−1: 5% MeOD-d4/95% D2O, pH* 2
Protocol: Hydrolysis. […] The rate of hydrolysis was determined by fitting plots of concentrations (determined by ^1H NMR peak integrals) versus time to a pseudo first-order equation using ORIGIN version 5.0 (Microcal Software Ltd.).

9-ethyl adenine (9EtA) = assay: Reaction with nucleobase model 9-ethyl adenine, 1H NMR; format: binding; settings: 1 mM complex, 1 mol equivalent 9EtA, D2O
Protocol: (§3) Since DNA is believed to be the main target for metal anticancer drugs, nucleobase binding reactions of compounds 3-6, with nucleobase models, 9-ethyl guanine (9EtG) and 9-ethyl adenine (9EtA), were investigated.
(§4) Solutions of 3-6 (1 mM) (present as an equilibrium between 3-6 and their respective aqua adducts as the major species) with 1 mol equivalent of 9EtG (Table 14) or 9EtA (Table 15) in D2O were prepared and ^1H NMR spectra were taken at different time intervals.
(§5) Interactions with Nucleobases. The reaction of compounds 8-12 with nucleobases typically involved addition of a solution containing 1 mol equiv of nucleobase in D2O, to an equilibrium solution of compounds 8-12 in D2O (>90% aqua). The pH* value of the sample was adjusted if necessary so as to remain close to 7.4 (physiological). ^1H NMR spectra of these solutions were recorded at 298 K after various time intervals.

9-ethyl guanine (9EtG) = assay: Reaction with nucleobase model 9-ethyl guanine, 1H NMR; format: binding; settings: 1 mM complex, 1 mol equivalent 9EtG, D2O
Protocol: as §3, §4, §5

[12] = system: A2780cisR (with acquired cisplatin resistance); settings: MTT, 72 hours exposure, 0 to 128 μM
Protocol: All experiments were made in quadruplicate.
All experiments were performed in quadruplicate.

[13] = Table 7, 24 h exposure, 72 h growth, 2-50 μM, read-out: IC50/μM A2780
[14] = Table 7, 24 h exposure, 72 h growth, 2-50 μM, read-out: IC50/μM A549

In the case of `NCCN.[Cl][Os+].c1ccc(-c2ccccc2)cc1.c1ccc([B-](c2ccccc2)(c2ccccc2)c2ccccc2)cc1` [(III)], the “Activity toward A2780 cells as previously reported” value [1] is listed as “inactive”.
In the case of `F[P-](F)(F)(F)(F)F.NCCN.[Cl][Os+].c1ccc(-c2ccccc2)cc1` [AFAP05, [(η^6-bip)Os(en)Cl]PF6], the “Stability of isotonic saline solutions” value [2] is reported as “stable”, the IC50 [3, 13] is reported as 7 µM and the IC50 [4, 14] is reported as 10 µM.
With `Cc1ccc(C(C)C)cc1.Cc1ccc2c(c1)[S][Os-]([Cl])[S]2.[Na+]` (centres unmarked) [AFAP40, [(η^6-p-cym)Os(S2C7H6)Cl]Na] the “Cytotoxicity, A549 and A2780” value [5] was “showed activity; also recorded: Shows cytotoxicity” and the “Aqueous solubility” value (Aqueous solubility) was “very poor”.
For `Cc1ccc(C(C)C)cc1.NCC(=O)[O][Os][Cl]` [AFAP43], the “Formation of inert hydroxo-bridged dimers” value [6] was “form in small amounts”, the IC50 [3, 13] was greater than 100 µM and the IC50 [4, 14] was greater than 100 µM. The “pKa of water coordinated on hydrolysis (aqua adduct of complex)” value (shortened to “pKa of water coordinated on hydrolysis”) [7] was 7.17.
With `CC(N)C(=O)[O][Os][Cl].Cc1ccc(C(C)C)cc1` [AFAP44] the “Formation of inert hydroxo-bridged dimers” value [6] was “form in small amounts”, the IC50 [3, 13] was greater than 100 µM and the IC50 [4, 14] was greater than 100 µM. For the same compound, the “pKa of water coordinated on hydrolysis” value [7] was 7.05.
In the case of `Cc1ccc(C(C)C)cc1.NCCC(=O)[O][Os][Cl]` [AFAP49], the “Formation of inert hydroxo-bridged dimers” value [6] is reported as “form in small amounts”, the IC50 [3, 13] is reported as greater than 100 µM and the IC50 [4, 14] is reported as greater than 100 µM. The “pKa of water coordinated on hydrolysis” value [7] was 7.43.
For `F[B-](F)(F)F.[Cl][Os-]1[NH2+]CC[NH2+]1.c1ccc(-c2ccccc2)cc1` [AFAP51, [(η^6-bip)Os(en)Cl]BF4], the “Stability of isotonic saline solutions” value [2] was “stable”, the “Cytotoxicity, A549 and A2780” value [5] was “does show cytotoxicity” and the IC50 [3, 13] was 7.6 µM. The IC50 [4, 14] was 10 µM, the “Stability of solutions in DMSO-d6” value [8] was “can decompose” and the “Activity toward A2780 cells as previously reported” value [1] was “inactive”. For the same compound, the “pKa of water coordinated on hydrolysis” value [7] was 6.34.
With `CC(C)(N)C(=O)[O][Os][Cl].Cc1ccc(C(C)C)cc1` [AFAP60] the “Formation of inert hydroxo-bridged dimers” value [6] was “form in small amounts”, the IC50 [3, 13] was greater than 100 µM and the IC50 [4, 14] was greater than 100 µM. For the same compound, the “pKa of water coordinated on hydrolysis” value [7] was 7.08.
In the case of `Cc1ccnc(C(=O)[O][Os][Cl])c1.c1ccc(-c2ccccc2)cc1` [Compound 6, [(η^6-bip)Os(4-Me-pico)Cl]], the “% aqua adduct” value ([9]; 4 mM NaCl) is reported as 82%, the “% aqua adduct” value ([9]; 22.7 mM NaCl) is reported as 53% and the “% aqua adduct” value ([9]; 100 mM NaCl) is reported as 10%. For the same compound, the “% aqua adduct” value ([10]; 4 mM NaCl) was 81%, the “% aqua adduct” value ([10]; 22.7 mM NaCl) was 53% and the “% aqua adduct” value ([10]; 100 mM NaCl) was 20%. For the same compound, the “Aquation k/h^−1” value ([11]; 278 K) was 0.17 h⁻¹, the “Aquation k/h^−1” value ([11]; 285 K) was 0.44 h⁻¹ and the “Hydrolysis k/h^−1” value ([11]; 288 K) was 0.710 ± 0.012 h⁻¹ and 0.71 h⁻¹. The “Hydrolysis k/h^−1” value ([11]; 298 K) was 2.32 ± 0.08 h⁻¹ and 2.32 h⁻¹, the Ea of aquation ([11]; from rates at 278-298 K) was 21.65 kcal/mol and the “ΔH^‡ of aquation” value ([11]; from rates at 278-298 K) was 21 kcal/mol. For the same compound, the “ΔS^‡ of aquation” value ([11]; from rates at 278-298 K) was −55.56 J K^−1 mol^−1, the “% 9EtA nucleobase adduct” value (9-ethyl adenine (9EtA); t = 10) was 0% and the “% 9EtA nucleobase adduct” value (9-ethyl adenine (9EtA); t = 24 h) was 60%. The “% 9EtA nucleobase adduct” value (9-ethyl adenine (9EtA); t = 72 h) was 60%, the “Activity in A2780 cancer cell line” value [3] was “toxic” and the IC50 ([3]; Table 8, compounds 1-6, read-out: A2780 IC50) was 4.4 µM. For the same compound, the IC50 ([4]; Table 8, compounds 1-6, read-out: A549 IC50) was 10 to 50 µM, the “% 9EtG nucleobase adduct” value (9-ethyl guanine (9EtG); t = 10) was 0% and the “% 9EtG nucleobase adduct” value (9-ethyl guanine (9EtG); t = 24 h) was 80%. The “% 9EtG nucleobase adduct” value (9-ethyl guanine (9EtG); t = 72 h) was 85% and the “pKa* of the aqua adduct” value [7] was 6.42.
With `[Cl][Os-]1[NH2+]CC[NH2+]1.c1ccc(-c2ccccc2)cc1` [[(η^6-bip)Os(en)Cl]^+] the “Hydrolysis slower than the equivalent ruthenium complex” value ([11]; osmium complex versus equivalent ruthenium complex) was 40 times and the “Activity in cisplatin resistant A2780cisR compared with A2780” value [12] was “even greater activity in the cisplatin resistant cell line”.
In the case of [(η^6-bip)Os(pico)Cl] [AFAP64], the “Stability of isotonic saline solutions” value [2] is reported as “stable”, the IC50 [3, 13] is reported as 4.2 µM and the IC50 [4, 14] is reported as 8 µM. For the same compound, the “pKa of water coordinated on hydrolysis” value [7] was 6.30.
With [(η^6-p-cym)Os(pico)Cl] [AFAP42] the “% of aqua complex formed” value ([9]; 4 mM [Cl], T = 0) was 56.1% Aqua, the “% of aqua complex formed” value ([9]; 4 mM [Cl], T = 24 h (310 K)) was 65.5% Aqua and the “% of aqua complex formed” value ([9]; 22.7 mM [Cl], T = 0) was 29.8% Aqua. For the same compound, the “% of aqua complex formed” value ([9]; 100 mM [Cl], T = 0) was 12% Aqua, the “% of aqua complex formed” value ([9]; 100 mM [Cl], T = 24 h (310 K)) was 12.9% Aqua and the “Stability of isotonic saline solutions” value [2] was “stable”. The “% of aqua complex formed” value ([10]; 4 mM [Cl], 50 μM complex, T = 0) was 73.5% Aqua, the “% of aqua complex formed” value ([10]; 4 mM [Cl], 50 μM complex, T = 24 h (310 K)) was 72.1% Aqua and the “% of aqua complex formed” value ([10]; 22.7 mM [Cl], 50 μM complex, T = 0) was 44.8% Aqua. For the same compound, the “% of aqua complex formed” value ([10]; 22.7 mM [Cl], 50 μM complex, T = 24 h (310 K)) was 45.2% Aqua, the “% of aqua complex formed” value ([10]; 22.7 mM [Cl], 1 mM complex, T = 24 h (310 K)) was 30.5% Aqua and the “% of aqua complex formed” value ([10]; 100 mM [Cl], 50 μM complex, T = 0) was 0% Aqua. For the same compound, the “% of aqua complex formed” value ([10]; 100 mM [Cl], 50 μM complex, T = 24 h (310 K)) was 0% Aqua, the “Stability with no evidence of dimer formation” value [6] was 100% and the IC50 [3, 13] was 4.5 µM. The IC50 [4, 14] was 17 µM and the “pKa of water coordinated on hydrolysis” value [7] was 6.62.
With [(η^6-p-cym)Os(quin)Cl] [AFAP62] the “Stability of isotonic saline solutions” value [2] was “stable”, the “Stability with no evidence of dimer formation” value [6] was 100% and the IC50 [3, 13] was 15 µM and 15.2 µM. For the same compound, the IC50 [4, 14] was 60 µM and the “pKa of water coordinated on hydrolysis” value [7] was 7.52.

Source: patent US20100291236A1, “OSMIUM COMPOUNDS” (THE UNIVERSITY OF WARWICK, priority 2006, published 2010)
